Experiment: recombinant UMI read abundance after kanamycin selection (control-corrected) (log10(CPM+1)); higher = more efficient recombination; extreme values may be limits of the assay; sequences stand for … in AGTGCAGAGAAAATCGGCCAGTTTTCTCTGCCTGCAGTCCGCATGCCGTGGGACCCCTTGGGTTCTAACCTGTTGCCTAGATTTATGCAGCGGACTGCCTTTCTCCCAAAGTGATAAACCGG…AGGTTGGTTTCACT; site = the 11-nt donor
In short: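 Each donor and donor-binding-loop pair was tracked by a 12-nt UMI on a plasmid carrying a promoterless kanamycin gene. With a second plasmid supplying a fixed target and T7-inducible IS621 bridge recombinase, the pool was plated in Escherichia coli on IPTG (0.07 mM) plus kanamycin or unselected. Sequencing of recombinant UMIs across the donor–target junction gave counts expressed as log10(CPM+1) after replicate averaging and control-derived scaling.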
In the case of “CCAGGTGCATGGACCGGTTTTCCCGGTAATCCGTATTTGAC (site CCAGGTGCTCT)”, the “recombinant UMI read abundance (log10)” value is reported as 0.00976.
For “CCAGGTGCATGGACCGGTTTTCCCGGTAATCCGTATTTGAC (site CCAGGTGCTGT)”, the “recombinant UMI read abundance (log10)” value was 0.637.
With “CCAGGTGCATGGACCGGTTTTCCCGGTAATCCGTATTTGAC (site CCAGGTGCTTT)” the “recombinant UMI read abundance (log10)” value was 0.00791.
For “CCAGGTGCATGGACCGGTTTTCCCGGTAATCCGTATTTGGT (site CCAGGTGCTAA)”, the “recombinant UMI read abundance (log10)” value was 0.0181.
For “CCAGGTGCATGGACCGGTTTTCCCGGTAATCCGTATTTGGT (site CCAGGTGCTAC)”, the “recombinant UMI read abundance (log10)” value was 0.188.
For “CCAGGTGCATGGACCGGTTTTCCCGGTAATCCGTATTTGGT (site CCAGGTGCTAG)”, the “recombinant UMI read abundance (log10)” value was 0.
In the case of “CCAGGTGCATGGACCGGTTTTCCCGGTAATCCGTATTTGGT (site CCAGGTGCTAT)”, the “recombinant UMI read abundance (log10)” value is reported as 0.541.
With “CCAGTAGCATGGACCGGTTTTCCCGGTAATCCGTATTTGAC (site CCAGTAGCTGT)” the “recombinant UMI read abundance (log10)” value was 2.06.
With “CCAGTAGCATGGACCGGTTTTCCCGGTAATCCGTATTTGAC (site CTAGTATCTGT)” the “recombinant UMI read abundance (log10)” value was 0.
For “CCAGTATCATGGACCGGTTTTCCCGGTAATCCGTATTTGCA (site ACAGTATCTTG)”, the “recombinant UMI read abundance (log10)” value was 1.07.
With “CCAGTATCATGGACCGGTTTTCCCGGTAATCCGTATTTGCA (site CCAGTATCTTG)” the “recombinant UMI read abundance (log10)” value was 2.21.
For “CCAGTATCATGGACCGGTTTTCCCGGTAATCCGTATTTGCA (site GCAGTATCTTG)”, the “recombinant UMI read abundance (log10)” value was 0.
With “CCAGTATCATGGACCGGTTTTCCCGGTAATCCGTATTTGCA (site TCAGTATCTTG)” the “recombinant UMI read abundance (log10)” value was 0.
With “CCAGTGACATGGACCGGTTTTCCCGGTAATCCGTATTTGGT (site CCAGTGACTAC)” the “recombinant UMI read abundance (log10)” value was 0.
In the case of “CCATATGCATGGACCGGTTTTCCCGGTAATCCGTATTTGGC (site CCATATGCTGC)”, the “recombinant UMI read abundance (log10)” value is reported as 0.0195.
In the case of “CCATCGCCATGGACCGGTTTTCCCGGTAATCCGTATTTGGA (site CCATCGCCTTC)”, the “recombinant UMI read abundance (log10)” value is reported as 0.0195.
With “CCATGGTCATGGACCGGTTTTCCCGGTAATCCGTATTTGTT (site CCATGGTCTAA)” the “recombinant UMI read abundance (log10)” value was 1.06.
In the case of “CCATTATCATGGACCGGTTTTCCCGGTAATCCGTATTTGCA (site ACAGTATCTTG)”, the “recombinant UMI read abundance (log10)” value is reported as 0.
For “CCATTATCATGGACCGGTTTTCCCGGTAATCCGTATTTGCA (site CCATTATCTTG)”, the “recombinant UMI read abundance (log10)” value was 0.785.
In the case of “CCATTCCCATGGACCGGTTTTCCCGGTAATCCGTATTTGCT (site CAATTCCCTAG)”, the “recombinant UMI read abundance (log10)” value is reported as 0.
For “CCATTCCCATGGACCGGTTTTCCCGGTAATCCGTATTTGCT (site CCATTCCCTAG)”, the “recombinant UMI read abundance (log10)” value was 0.
For “CCATTCCCATGGACCGGTTTTCCCGGTAATCCGTATTTGCT (site CGATTCCCTAG)”, the “recombinant UMI read abundance (log10)” value was 0.
With “CCATTCCCATGGACCGGTTTTCCCGGTAATCCGTATTTGCT (site CTATTCCCTAG)” the “recombinant UMI read abundance (log10)” value was 0.
For “CCATTCTCATGGACCGGTTTTCCCGGTAATCCGTATTTGTA (site CCATTCTCTTA)”, the “recombinant UMI read abundance (log10)” value was 0.451.
In the case of “CCCAACACATGGACCGGTTTTCCCGGTAATCCGTATTTGTA (site CCCAACACTTA)”, the “recombinant UMI read abundance (log10)” value is reported as 1.35.
For “CCCAACACATGGACCGGTTTTCCCGGTAATCCGTATTTGTA (site CCCCACACTTA)”, the “recombinant UMI read abundance (log10)” value was 0.0125.
For “CCCAACACATGGACCGGTTTTCCCGGTAATCCGTATTTGTA (site CCCGACACTTA)”, the “recombinant UMI read abundance (log10)” value was 0.0265.
For “CCCAACACATGGACCGGTTTTCCCGGTAATCCGTATTTGTA (site CCCTACACTTA)”, the “recombinant UMI read abundance (log10)” value was 0.00893.
In the case of “CCCAACCCATGGACCGGTTTTCCCGGTAATCCGTATTTGAT (site CCCAACCCTAT)”, the “recombinant UMI read abundance (log10)” value is reported as 0.00723.
For “CCCAAGTCATGGACCGGTTTTCCCGGTAATCCGTATTTGGG (site CCCAAGTCTCC)”, the “recombinant UMI read abundance (log10)” value was 2.38.
In the case of “CCCAATTCATGGACCGGTTTTCCCGGTAATCCGTATTTGCC (site ACCAATTCTGG)”, the “recombinant UMI read abundance (log10)” value is reported as 0.
With “CCCAATTCATGGACCGGTTTTCCCGGTAATCCGTATTTGCC (site CCCAATTCTGG)” the “recombinant UMI read abundance (log10)” value was 0.628.
In the case of “CCCAATTCATGGACCGGTTTTCCCGGTAATCCGTATTTGCC (site GCCAATTCTGG)”, the “recombinant UMI read abundance (log10)” value is reported as 0.
For “CCCAATTCATGGACCGGTTTTCCCGGTAATCCGTATTTGCC (site TCCAATTCTGG)”, the “recombinant UMI read abundance (log10)” value was 0.
In the case of “CCCACCGCATGGACCGGTTTTCCCGGTAATCCGTATTTGCG (site ACCACCGCTCG)”, the “recombinant UMI read abundance (log10)” value is reported as 0.0127.
In the case of “CCCACCGCATGGACCGGTTTTCCCGGTAATCCGTATTTGCG (site CCCACCGCTCG)”, the “recombinant UMI read abundance (log10)” value is reported as 0.00466.
For “CCCACCGCATGGACCGGTTTTCCCGGTAATCCGTATTTGCG (site GCCACCGCTCG)”, the “recombinant UMI read abundance (log10)” value was 0.0563.
In the case of “CCCACCGCATGGACCGGTTTTCCCGGTAATCCGTATTTGCG (site TCCACCGCTCG)”, the “recombinant UMI read abundance (log10)” value is reported as 0.00493.
For “CCCACGCCATGGACCGGTTTTCCCGGTAATCCGTATTTGTA (site ACCACGCCTTA)”, the “recombinant UMI read abundance (log10)” value was 0.00406.
For “CCCACGCCATGGACCGGTTTTCCCGGTAATCCGTATTTGTA (site CCCACGCCTTA)”, the “recombinant UMI read abundance (log10)” value was 0.00594.
For “CCCACGCCATGGACCGGTTTTCCCGGTAATCCGTATTTGTA (site GCCACGCCTTA)”, the “recombinant UMI read abundance (log10)” value was 0.00718.
For “CCCACGCCATGGACCGGTTTTCCCGGTAATCCGTATTTGTA (site TCCACGCCTTA)”, the “recombinant UMI read abundance (log10)” value was 0.0141.
In the case of “CCCAGATCATGGACCGGTTTTCCCGGTAATCCGTATTTGTC (site CCCAAATCTGA)”, the “recombinant UMI read abundance (log10)” value is reported as 0.
For “CCCAGATCATGGACCGGTTTTCCCGGTAATCCGTATTTGTC (site CCCACATCTGA)”, the “recombinant UMI read abundance (log10)” value was 0.
For “CCCAGATCATGGACCGGTTTTCCCGGTAATCCGTATTTGTC (site CCCAGATCTGA)”, the “recombinant UMI read abundance (log10)” value was 0.
With “CCCAGATCATGGACCGGTTTTCCCGGTAATCCGTATTTGTC (site CCCATATCTGA)” the “recombinant UMI read abundance (log10)” value was 0.
For “CCCATAACATGGACCGGTTTTCCCGGTAATCCGTATTTGTC (site CCCATAACTGA)”, the “recombinant UMI read abundance (log10)” value was 0.
For “CCCATAACATGGACCGGTTTTCCCGGTAATCCGTATTTGTC (site CCCATACCTGA)”, the “recombinant UMI read abundance (log10)” value was 0.
In the case of “CCCATAACATGGACCGGTTTTCCCGGTAATCCGTATTTGTC (site CCCATAGCTGA)”, the “recombinant UMI read abundance (log10)” value is reported as 0.
With “CCCATAACATGGACCGGTTTTCCCGGTAATCCGTATTTGTC (site CCCATATCTGA)” the “recombinant UMI read abundance (log10)” value was 0.
For “CCCATACCATGGACCGGTTTTCCCGGTAATCCGTATTTGTC (site CCCATAACTGA)”, the “recombinant UMI read abundance (log10)” value was 0.
In the case of “CCCATACCATGGACCGGTTTTCCCGGTAATCCGTATTTGTC (site CCCATACCTGA)”, the “recombinant UMI read abundance (log10)” value is reported as 0.
With “CCCATACCATGGACCGGTTTTCCCGGTAATCCGTATTTGTC (site CCCATAGCTGA)” the “recombinant UMI read abundance (log10)” value was 0.
For “CCCATACCATGGACCGGTTTTCCCGGTAATCCGTATTTGTC (site CCCATATCTGA)”, the “recombinant UMI read abundance (log10)” value was 0.
With “CCCATATCATGGACCGGTTTTCCCGGTAATCCGTATTTGAC (site CCCATATCTGA)” the “recombinant UMI read abundance (log10)” value was 0.
With “CCCATATCATGGACCGGTTTTCCCGGTAATCCGTATTTGAC (site CCCATATCTGC)” the “recombinant UMI read abundance (log10)” value was 0.
For “CCCATATCATGGACCGGTTTTCCCGGTAATCCGTATTTGAC (site CCCATATCTGG)”, the “recombinant UMI read abundance (log10)” value was 0.
With “CCCATATCATGGACCGGTTTTCCCGGTAATCCGTATTTGAC (site CCCATATCTGT)” the “recombinant UMI read abundance (log10)” value was 0.446.
With “CCCATCTCATGGACCGGTTTTCCCGGTAATCCGTATTTGTA (site CCCATCTCTTA)” the “recombinant UMI read abundance (log10)” value was 1.97.
For “CCCCACACATGGACCGGTTTTCCCGGTAATCCGTATTTGTC (site CCCCACACTAA)”, the “recombinant UMI read abundance (log10)” value was 0.316.
For “CCCCACACATGGACCGGTTTTCCCGGTAATCCGTATTTGTC (site CCCCACACTCA)”, the “recombinant UMI read abundance (log10)” value was 0.235.
With “CCCCACACATGGACCGGTTTTCCCGGTAATCCGTATTTGTC (site CCCCACACTGA)” the “recombinant UMI read abundance (log10)” value was 2.39.
With “CCCCACACATGGACCGGTTTTCCCGGTAATCCGTATTTGTC (site CCCCACACTTA)” the “recombinant UMI read abundance (log10)” value was 0.335.
In the case of “CCCCACACATGGACCGGTTTTCCCGGTAATCCGTATTTGTT (site CCCCACACTAA)”, the “recombinant UMI read abundance (log10)” value is reported as 0.634.
With “CCCCACACATGGACCGGTTTTCCCGGTAATCCGTATTTGTT (site CCCCACACTCA)” the “recombinant UMI read abundance (log10)” value was 0.35.
With “CCCCACACATGGACCGGTTTTCCCGGTAATCCGTATTTGTT (site CCCCACACTGA)” the “recombinant UMI read abundance (log10)” value was 0.246.
For “CCCCACACATGGACCGGTTTTCCCGGTAATCCGTATTTGTT (site CCCCACACTTA)”, the “recombinant UMI read abundance (log10)” value was 0.396.
With “CCCCGAGCATGGACCGGTTTTCCCGGTAATCCGTATTTGCA (site CCCCGAGCTTG)” the “recombinant UMI read abundance (log10)” value was 0.798.
With “CCCCGCACATGGACCGGTTTTCCCGGTAATCCGTATTTGGA (site CCCCGCACTTC)” the “recombinant UMI read abundance (log10)” value was 0.0136.
In the case of “CCCCTATCATGGACCGGTTTTCCCGGTAATCCGTATTTGTC (site CCCATATCTGA)”, the “recombinant UMI read abundance (log10)” value is reported as 0.
For “CCCCTATCATGGACCGGTTTTCCCGGTAATCCGTATTTGTC (site CCCCTATCTGA)”, the “recombinant UMI read abundance (log10)” value was 1.82.
For “CCCCTATCATGGACCGGTTTTCCCGGTAATCCGTATTTGTC (site CCCGTATCTGA)”, the “recombinant UMI read abundance (log10)” value was 0.
For “CCCCTATCATGGACCGGTTTTCCCGGTAATCCGTATTTGTC (site CCCTTATCTGA)”, the “recombinant UMI read abundance (log10)” value was 0.
In the case of “CCCGACTCATGGACCGGTTTTCCCGGTAATCCGTATTTGAA (site CCCGACTCTTT)”, the “recombinant UMI read abundance (log10)” value is reported as 1.35.
For “CCCGATCCATGGACCGGTTTTCCCGGTAATCCGTATTTGCA (site CCCGATCCTTG)”, the “recombinant UMI read abundance (log10)” value was 0.

— the supplement of paper PMC11208160
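Further: IS621 bridge recombinase in Escherichia coli cells against a fixed T5 target plasmid.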
